From ChEMBL document CHEMBL1201862, “PubChem BioAssay data set” (2004) come the findings set out here.

Test systems include HOP-62; LOX IMVI; OVCAR-8; HL-60; 786-0; UO-31; KM12; NCI-H226; TK-10; A549; LXFL 529; EKVX; SF-295; UACC-257; CAKI-1; BT-549; MCF7; T47D; MDA-N; NCI/ADR-RES.
Holding throughout (assay): NCI tumour cell line growth inhibition, 48 h

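Five concentrations, 48 hours, 96-well plates. The concentration for 50% growth inhibition is given as GI50.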 Active and inactive are the calls of the source. No stated cut-off is given here; in the data, active = GI50 up to about 1.1 µM and inactive = higher. A value given as a limit tells only on which side of the number the result lay.

Take `CC1=C(C(=O)Nc2cccc(Cl)c2)C(c2ccccc2F)C(C(=O)Nc2cccc(Cl)c2)=C(C)N1`: the GI50 was 15.8 µM (inactive) in the experiment on HOP-62; 7.1 µM (inactive) with LOX IMVI; 17 µM (inactive) in the experiment with OVCAR-8; 3.78 µM (inactive) with HL-60; 13.7 µM (inactive) with 786-0; 7.94 µM (inactive) in the experiment on UO-31. Besides, the GI50 in the experiment on KM12 was 7.55 µM (inactive); in the experiment with NCI-H226, 11.3 µM (inactive); with TK-10, 21.5 µM (inactive); in the experiment with A549, 7.78 µM (inactive); in the experiment on LXFL 529, 8.11 µM (inactive); in the experiment on EKVX, 6.22 µM (inactive). Besides, the GI50 in the experiment on SF-295 is 17.3 µM (inactive); with UACC-257 it was 10.2 µM (inactive); with CAKI-1, 4.99 µM (inactive).

Consider `Cc1ccc(C(=O)N(C(C)C)C(C)C)cc1/N=N/N(C)C`, for which the GI50 with HOP-62 was > 100 µM (inactive); with LOX IMVI, > 31.6 µM (inactive); in the experiment on OVCAR-8, > 100 µM (inactive); in the experiment on BT-549, > 100 µM (inactive); in the experiment with HL-60 it was 29.7 µM (inactive); in the experiment on 786-0 it was > 100 µM (inactive). Also, the GI50 in the experiment on UO-31 is > 61.4 µM (inactive); with MCF7, > 100 µM (inactive); in the experiment on KM12 it was 45.2 µM (inactive); in the experiment on NCI-H226, > 100 µM (inactive); with TK-10, > 100 µM (inactive); in the experiment with T47D, 39.4 µM (inactive). Besides, the GI50 in the experiment with A549 is > 100 µM (inactive); with MDA-N, > 100 µM (inactive); in the experiment with NCI/ADR-RES it was > 100 µM (inactive); in the experiment on LXFL 529, 31.2 µM (inactive); in the experiment on EKVX, > 100 µM (inactive); with SF-295, > 86.9 µM (inactive). Moreover, the GI50 in the experiment with UACC-257 was 57.4 µM (inactive); in the experiment on CAKI-1, > 100 µM (inactive).

For the molecule `COC(=O)C(=O)C(C(C)=O)C(=O)NCc1ccccc1` (stereo not given), the GI50 with HOP-62 was > 100 µM (inactive); with LOX IMVI it was 50.1 µM (inactive); in the experiment on OVCAR-8 it was > 100 µM (inactive); in the experiment on HL-60, > 100 µM (inactive); in the experiment on 786-0, > 100 µM (inactive); with UO-31 it was > 100 µM (inactive). Also, the GI50 in the experiment on KM12, with NCI-H226, with TK-10, in the experiment on A549, in the experiment on LXFL 529 and with EKVX was > 100 µM (inactive) throughout. Moreover, the GI50 in the experiment with SF-295, with UACC-257 and with CAKI-1 was > 100 µM (inactive) throughout.

With `N#CC1(C#N)C(C#N)(C#N)C12CCCCCC2`, the GI50 with HOP-62 was > 52.8 µM (inactive); in the experiment on LOX IMVI, 16.7 µM (inactive); in the experiment with OVCAR-8 it was 13.2 µM (inactive); in the experiment with HL-60, 3.48 µM (inactive); with 786-0, 6.59 µM (inactive); in the experiment on UO-31 it was 18.5 µM (inactive). Moreover, the GI50 in the experiment with KM12 is 14 µM (inactive); in the experiment with NCI-H226 it was 20 µM (inactive); in the experiment on TK-10 it was 16.8 µM (inactive); in the experiment on A549 it was 14.7 µM (inactive); in the experiment on LXFL 529, 15.2 µM (inactive); in the experiment on EKVX it was 17.3 µM (inactive). Further, the GI50 is > 39.7 µM (inactive) in the experiment with SF-295, 13.9 µM (inactive) in the experiment with UACC-257 and 12.2 µM (inactive) in the experiment on CAKI-1.

With `COc1ccc2c(NCCCCCCNc3c4ccccc4nc4cc(OC)ccc34)c3ccccc3nc2c1`, the GI50 in the experiment with HOP-62 was 0.137 µM (active); in the experiment on LOX IMVI, 0.0653 µM (active); in the experiment with OVCAR-8, 0.0853 µM (active); in the experiment with BT-549 it was 1.3 µM (inactive); with HL-60, 0.0923 µM (active); with 786-0, 0.0753 µM (active). Moreover, the GI50 in the experiment on UO-31 is 12.9 µM (inactive); with MCF7 it was 0.0475 µM (active); with KM12, 0.0776 µM (active); with NCI-H226, 0.212 µM (active); in the experiment on TK-10, 0.385 µM (active); with T47D it was 0.421 µM (active). Moreover, the GI50 in the experiment with A549 is 0.0716 µM (active); with MDA-N, 0.142 µM (active); in the experiment with NCI/ADR-RES, 2.72 µM (inactive); in the experiment with LXFL 529 it was 0.04 µM (active); with EKVX it was 0.579 µM (active); with SF-295, 0.286 µM (active). Also, the figures for the GI50 in the experiment on UACC-257 and in the experiment on CAKI-1 were 0.731 µM (active) and 0.367 µM (active), respectively.

As to `CC1=NN(c2ccccc2)C(=O)C1=C1SCCS1`, the GI50 with HOP-62 was > 100 µM (inactive); with LOX IMVI it was 42.6 µM (inactive); in the experiment with OVCAR-8, > 77.6 µM (inactive); in the experiment on HL-60, > 40 µM (inactive); in the experiment on 786-0 it was > 72.9 µM (inactive); in the experiment with UO-31 it was 37.9 µM (inactive). In addition, the GI50 was > 88.9 µM (inactive) in the experiment on KM12; > 64 µM (inactive) in the experiment with NCI-H226; > 55.1 µM (inactive) in the experiment with TK-10; > 70 µM (inactive) with A549; > 67.9 µM (inactive) in the experiment on LXFL 529; 47.5 µM (inactive) in the experiment with EKVX. Also, the figures for the GI50 with SF-295, in the experiment with UACC-257 and with CAKI-1 were > 71.8 µM (inactive), > 74.6 µM (inactive) and > 78.9 µM (inactive), respectively.

On to `Cc1cc(Cl)ccc1NC(=O)C(=O)Cc1occc(=O)c1O`, for which the GI50 in the experiment on HOP-62, in the experiment with LOX IMVI, in the experiment on OVCAR-8, in the experiment on HL-60, in the experiment on 786-0 and in the experiment with UO-31 was > 100 µM (inactive) in each case. For the same molecule, the GI50 with KM12, in the experiment on NCI-H226, in the experiment with TK-10, in the experiment with A549, in the experiment on LXFL 529 and in the experiment with EKVX was > 100 µM (inactive) each time. Also, the GI50 with SF-295, in the experiment with UACC-257 and in the experiment on CAKI-1 was > 100 µM (inactive) in each case.

With `COc1ccc(/C=C\c2cc(OC)c3c(c2)OCO3)c(O)c1O`, the GI50 in the experiment with HOP-62 was 7.59 µM (inactive); in the experiment on LOX IMVI it was 4.53 µM (inactive); in the experiment with OVCAR-8, 5.53 µM (inactive); with HL-60, 2.8 µM (inactive); with 786-0, 3.26 µM (inactive); in the experiment on UO-31, 5.87 µM (inactive). Moreover, the GI50 in the experiment with KM12 was 5.62 µM (inactive); in the experiment on NCI-H226, 16.1 µM (inactive); with TK-10 it was 24.9 µM (inactive); in the experiment with A549, 9.04 µM (inactive); in the experiment on LXFL 529, 2.07 µM (inactive); with EKVX, 11.7 µM (inactive). The GI50 is 8.3 µM (inactive) with SF-295, 14.1 µM (inactive) in the experiment on UACC-257 and 2.79 µM (inactive) with CAKI-1.

Take `CCc1cccc(C(C)CC)c1NC(=O)C(=O)Cc1nc2ccccc2o1` (stereo not given): the GI50 in the experiment on HOP-62, with LOX IMVI, in the experiment on OVCAR-8, in the experiment on HL-60, in the experiment on 786-0 and in the experiment with UO-31 was > 50 µM (inactive) throughout. In addition, the GI50 in the experiment on KM12 is > 50 µM (inactive); in the experiment with NCI-H226, 3.82 µM (inactive); in the experiment with TK-10 it was > 50 µM (inactive); in the experiment with A549 it was > 50 µM (inactive); in the experiment on LXFL 529, > 50 µM (inactive); with EKVX it was > 50 µM (inactive). Also, the GI50 in the experiment on SF-295, in the experiment with UACC-257 and in the experiment with CAKI-1 was > 50 µM (inactive) each time.
